According to ChEMBL document CHEMBL3044671, “Synthesis and in vitro antimicrobial and anti-tubercular evaluation of some quinoline-based azitidinone and thiazolidinone analogues” (2013):
≈ marks a conversion by molar mass, not a printed value.

Tests used:
Format in all cases: functional
Escherichia coli [1] = assay: Antimicrobial activity against Escherichia coli MTCC 739 assessed as growth inhibition by agar streak dilution method
Pseudomonas aeruginosa [2] = assay: Antimicrobial activity against Pseudomonas aeruginosa MTCC 741 assessed as growth inhibition by agar streak dilution method
Pseudomonas aeruginosa [3] = assay: Antimicrobial activity against Pseudomonas aeruginosa MTCC 741 assessed as diameter of growth zone inhibition by agar streak dilution method
Staphylococcus aureus [4] = assay: Antimicrobial activity against Staphylococcus aureus MTCC 96 assessed as diameter of growth zone inhibition by agar streak dilution method
Candida albicans [5] = assay: Antimicrobial activity against Candida albicans MTCC 183 assessed as diameter of growth zone inhibition by agar streak dilution method
Aspergillus niger [6] = assay: Antimicrobial activity against Aspergillus niger MTCC 282 assessed as diameter of growth zone inhibition by agar streak dilution method
[7] = test system: Mycobacterium tuberculosis; assay: Antitubercular activity against Mycobacterium tuberculosis H37Rv assessed as growth inhibition by BACTEC MGIT method
Escherichia coli [8] = assay: Antimicrobial activity against Escherichia coli MTCC 739 assessed as diameter of growth zone inhibition by agar streak dilution method
Candida albicans [9] = assay: Antimicrobial activity against Candida albicans MTCC 183 assessed as growth inhibition by agar streak dilution method
Bacillus subtilis [10] = assay: Antimicrobial activity against Bacillus subtilis MTCC 430 assessed as growth inhibition by agar streak dilution method
Staphylococcus aureus [11] = assay: Antimicrobial activity against Staphylococcus aureus MTCC 96 assessed as growth inhibition by agar streak dilution method
Aspergillus niger [12] = assay: Antimicrobial activity against Aspergillus niger MTCC 282 assessed as growth inhibition by agar streak dilution method
Bacillus subtilis [13] = assay: Antimicrobial activity against Bacillus subtilis MTCC 430 assessed as diameter of growth zone inhibition by agar streak dilution method

Compound	MIC (Escherichia coli [1]) [µg/mL]	MIC (Pseudomonas aeruginosa [2]) [µg/mL]	diameter of the inhibition zone (DIZ) (Pseudomonas aeruginosa [3]) [mm]	diameter of the inhibition zone (DIZ) (Staphylococcus aureus [4]) [mm]	diameter of the inhibition zone (DIZ) (Candida albicans [5]) [mm]	diameter of the inhibition zone (DIZ) (Aspergillus niger [6]) [mm]	MIC [7] [µg/mL]	diameter of the inhibition zone (DIZ) (Escherichia coli [8]) [mm]	MIC (Candida albicans [9]) [µg/mL]	MIC (Bacillus subtilis [10]) [µg/mL]	MIC (Staphylococcus aureus [11]) [µg/mL]	MIC (Aspergillus niger [12]) [µg/mL]	diameter of the inhibition zone (DIZ) (Bacillus subtilis [13]) [mm]
Cc1cnc(N2C(=O)CSC2c2cc3ccccc3nc2S)s1 (stereo not given)	12.5 (≈ 34.8 µM)	62.5 (≈ 174 µM)	23	24	24	23	62.5 (≈ 174 µM)	24	62.5 (≈ 174 µM)	25 (≈ 69.5 µM)	12.5 (≈ 34.8 µM)	62.5 (≈ 174 µM)	23
O=C1C(Cl)C(c2cc3ccccc3nc2S)N1c1ccccc1[N+](=O)[O-] (stereo not given)	62.5 (≈ 162 µM)	25 (≈ 64.8 µM)	24	22	21	23	500 (≈ 1300 µM)	21	62.5 (≈ 162 µM)	62.5 (≈ 162 µM)	62.5 (≈ 162 µM)	25 (≈ 64.8 µM)	22
Cc1ccccc1N1C(=O)C(Cl)C1c1cc2ccccc2nc1S (stereo not given)	100 (≈ 282 µM)	100 (≈ 282 µM)	19	21	20	18	500 (≈ 1410 µM)	<10	100 (≈ 282 µM)	100 (≈ 282 µM)	62.5 (≈ 176 µM)	100 (≈ 282 µM)	<10
O=C1C(Cl)C(c2cc3ccccc3nc2S)N1c1ccc([N+](=O)[O-])cc1 (stereo not given)	12.5 (≈ 32.4 µM)	12.5 (≈ 32.4 µM)	24	24	20	24	250 (≈ 648 µM)	25	100 (≈ 259 µM)	25 (≈ 64.8 µM)	50 (≈ 130 µM)	12.5 (≈ 32.4 µM)	24
O=C1CSC(c2cc3ccccc3nc2S)N1c1ccccc1Cl (stereo not given)	12.5 (≈ 33.5 µM)	62.5 (≈ 168 µM)	23	23	22	21	125 (≈ 335 µM)	23	100 (≈ 268 µM)	12.5 (≈ 33.5 µM)	6.25 (≈ 16.8 µM)	62.5 (≈ 168 µM)	25
Cc1ccc(N2C(=O)C(Cl)C2c2cc3ccccc3nc2S)cc1 (stereo not given)	100 (≈ 282 µM)	100 (≈ 282 µM)	18	18	15	17	250 (≈ 704 µM)	18	100 (≈ 282 µM)	100 (≈ 282 µM)	100 (≈ 282 µM)	100 (≈ 282 µM)	19
O=C1C(Cl)C(c2cc3ccccc3nc2S)N1c1ccc(Cl)cc1 (stereo not given)	25 (≈ 66.6 µM)	25 (≈ 66.6 µM)	24	26	22	25	62.5 (≈ 167 µM)	24	100 (≈ 266 µM)	6.25 (≈ 16.7 µM)	6.25 (≈ 16.7 µM)	25 (≈ 66.6 µM)	25
NNC(=O)c1ccncc1 [ISONIAZID]							0.2 (≈ 1.46 µM)						
O=C1C(Cl)C(c2cc3ccccc3nc2S)N1c1cccc([N+](=O)[O-])c1 (stereo not given)	50 (≈ 130 µM)	50 (≈ 130 µM)	23	22	20	24	250 (≈ 648 µM)	22	100 (≈ 259 µM)	50 (≈ 130 µM)	50 (≈ 130 µM)	12.5 (≈ 32.4 µM)	22
O=C1CSC(c2cc3ccccc3nc2S)N1c1ccc(Cl)cc1 (stereo not given)	25 (≈ 67 µM)	25 (≈ 67 µM)	24	25	24	25	62.5 (≈ 168 µM)	23	100 (≈ 268 µM)	3.12 (≈ 8.37 µM)	6.25 (≈ 16.8 µM)	12.5 (≈ 33.5 µM)	25
Cc1cccc(N2C(=O)C(Cl)C2c2cc3ccccc3nc2S)c1 (stereo not given)	100 (≈ 282 µM)	100 (≈ 282 µM)	<10	19	18	19	500 (≈ 1410 µM)	17	100 (≈ 282 µM)	100 (≈ 282 µM)	100 (≈ 282 µM)	100 (≈ 282 µM)	18
O=C1CSC(c2cc3ccccc3nc2S)N1c1ccc(F)cc1 (stereo not given)	12.5 (≈ 35.1 µM)	50 (≈ 140 µM)	24	25	26	26	62.5 (≈ 175 µM)	24	25 (≈ 70.1 µM)	6.25 (≈ 17.5 µM)	3.12 (≈ 8.75 µM)	12.5 (≈ 35.1 µM)	25
O=C1CSC(c2cc3ccccc3nc2S)N1c1ccc([N+](=O)[O-])cc1 (stereo not given)	6.25 (≈ 16.3 µM)	12.5 (≈ 32.6 µM)	24	23	18	25	62.5 (≈ 163 µM)	23	100 (≈ 261 µM)	50 (≈ 130 µM)	12.5 (≈ 32.6 µM)	25 (≈ 65.2 µM)	23
O=C1C(Cl)C(c2cc3ccccc3nc2S)N1c1ccccc1Cl (stereo not given)	50 (≈ 133 µM)	50 (≈ 133 µM)	22	24	19	20	125 (≈ 333 µM)	23	100 (≈ 266 µM)	12.5 (≈ 33.3 µM)	6.25 (≈ 16.7 µM)	62.5 (≈ 167 µM)	25
Cc1ccccc1N1C(=O)CSC1c1cc2ccccc2nc1S (stereo not given)	100 (≈ 284 µM)	1000 (≈ 2840 µM)	14	20	17	16	500 (≈ 1420 µM)	15	100 (≈ 284 µM)	100 (≈ 284 µM)	100 (≈ 284 µM)	100 (≈ 284 µM)	15
Cc1cnc(N2C(=O)C(Cl)C2c2cc3ccccc3nc2S)s1 (stereo not given)	12.5 (≈ 34.5 µM)	100 (≈ 276 µM)	22	24	24	22	125 (≈ 345 µM)	24	62.5 (≈ 173 µM)	6.25 (≈ 17.3 µM)	25 (≈ 69.1 µM)	50 (≈ 138 µM)	22
O=C1CSC(c2cc3ccccc3nc2S)N1c1ccccc1 (stereo not given)	100 (≈ 295 µM)	100 (≈ 295 µM)	17	19	15	16	1000 (≈ 2950 µM)	16	100 (≈ 295 µM)	100 (≈ 295 µM)	100 (≈ 295 µM)	100 (≈ 295 µM)	17
O=C1CSC(c2cc3ccccc3nc2S)N1c1ccccc1[N+](=O)[O-] (stereo not given)	62.5 (≈ 163 µM)	25 (≈ 65.2 µM)	23	22	22	23	250 (≈ 652 µM)	23	62.5 (≈ 163 µM)	62.5 (≈ 163 µM)	62.5 (≈ 163 µM)	50 (≈ 130 µM)	23
CO[C@H]1/C=C/O[C@@]2(C)Oc3c(C)c(O)c4c(O)c(c(/C=N/N5CCN(C)CC5)c(O)c4c3C2=O)NC(=O)/C(C)=C\C=C\[C@H](C)[C@H](O)[C@@H](C)[C@@H](O)[C@@H](C)[C@H](OC(C)=O)[C@@H]1C [RIFAMPIN]							40 (≈ 48.6 µM)						
O=C(O)c1cn(C2CC2)c2cc(N3CCNCC3)c(F)cc2c1=O [CIPROFLOXACIN]	≤ 1	≤ 1	33	30				32		≤ 1	≤ 1		31
CC(=O)N1CCN(c2ccc(OCC3COC(Cn4ccnc4)(c4ccc(Cl)cc4Cl)O3)cc2)CC1 (stereo not given) [KETOCONAZOLE]					33	30			≤ 1			≤ 3	
